By Ki is commonly meant the dissociation constant of the complex between target and ligand, obtained from inhibition or displacement. Usually inhibition in vivo stands for the drop in the measured response relative to a control, in per cent. By pKi is commonly meant −log10 of the Ki, conventionally taken in molar units. Low readings indicate a high Ki, high ones a low Ki.

Activity calls are given as the source filed them. The calls are words filed in the database; no cut-off is given here.

One assay deals with Nischarin (Rattus norvegicus, UniProt Q4G017). Nature of the assay: Displacement of [125I]-p-iodoclonidin from I1-imidazoline receptor in rat PC12 cell membranes. Also noted: species or system PC-12.
Nischarin, sequence (Q4G017 whole entry): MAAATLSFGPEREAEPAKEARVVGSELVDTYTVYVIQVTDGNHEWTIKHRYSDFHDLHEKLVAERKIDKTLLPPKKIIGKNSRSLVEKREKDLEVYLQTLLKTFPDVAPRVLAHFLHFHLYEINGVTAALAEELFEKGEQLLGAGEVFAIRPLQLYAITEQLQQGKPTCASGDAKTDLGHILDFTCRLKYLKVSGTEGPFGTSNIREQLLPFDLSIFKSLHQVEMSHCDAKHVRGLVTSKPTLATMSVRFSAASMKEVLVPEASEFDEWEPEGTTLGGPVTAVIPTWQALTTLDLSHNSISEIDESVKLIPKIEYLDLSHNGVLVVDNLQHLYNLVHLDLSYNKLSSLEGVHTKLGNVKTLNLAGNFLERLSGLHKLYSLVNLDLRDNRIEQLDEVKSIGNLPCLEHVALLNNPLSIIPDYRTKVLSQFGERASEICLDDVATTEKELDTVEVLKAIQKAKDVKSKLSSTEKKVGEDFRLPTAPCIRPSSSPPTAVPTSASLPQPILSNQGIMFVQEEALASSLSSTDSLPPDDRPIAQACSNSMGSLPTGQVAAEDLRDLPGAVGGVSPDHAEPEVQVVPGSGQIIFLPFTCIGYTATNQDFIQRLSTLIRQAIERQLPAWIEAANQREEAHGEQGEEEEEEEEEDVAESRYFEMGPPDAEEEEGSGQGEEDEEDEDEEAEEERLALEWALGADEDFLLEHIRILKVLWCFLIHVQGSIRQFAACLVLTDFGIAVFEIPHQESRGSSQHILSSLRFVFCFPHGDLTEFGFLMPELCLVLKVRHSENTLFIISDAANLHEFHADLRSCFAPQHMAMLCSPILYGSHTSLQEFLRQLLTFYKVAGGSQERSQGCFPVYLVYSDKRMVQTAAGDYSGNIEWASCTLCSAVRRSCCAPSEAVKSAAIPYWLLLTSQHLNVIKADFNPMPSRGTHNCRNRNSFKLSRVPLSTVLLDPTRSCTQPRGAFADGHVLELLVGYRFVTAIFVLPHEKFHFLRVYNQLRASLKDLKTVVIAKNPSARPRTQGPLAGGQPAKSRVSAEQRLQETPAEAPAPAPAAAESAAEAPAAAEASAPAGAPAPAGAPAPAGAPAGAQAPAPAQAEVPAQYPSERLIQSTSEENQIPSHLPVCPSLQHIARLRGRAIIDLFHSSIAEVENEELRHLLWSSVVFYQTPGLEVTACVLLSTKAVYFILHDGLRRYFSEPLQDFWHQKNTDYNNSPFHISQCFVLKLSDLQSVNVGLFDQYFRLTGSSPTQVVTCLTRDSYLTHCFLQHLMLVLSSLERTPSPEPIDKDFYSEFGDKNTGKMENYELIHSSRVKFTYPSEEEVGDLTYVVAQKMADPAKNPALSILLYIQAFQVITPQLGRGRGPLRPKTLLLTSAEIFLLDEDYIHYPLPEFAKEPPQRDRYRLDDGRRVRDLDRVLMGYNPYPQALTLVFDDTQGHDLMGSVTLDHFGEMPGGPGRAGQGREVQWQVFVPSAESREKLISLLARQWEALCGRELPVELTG
The subject of assay [1] is Rattus norvegicus. Nature of the assay: Reduction in mean arterial blood pressure in spontaneously hypertensive rat at 30 mg/kg, ip administered as single dose and measured 120 mins post dose by tail-cuff plethysmography. Type of assay: functional. The settings on record: 2 h.
Assay [2] has as its system Rattus norvegicus. Kind of assay: Reduction in mean arterial blood pressure in spontaneously hypertensive rat at 30 mg/kg, ip administered as single dose and measured 30 mins post dose by tail-cuff plethysmography. In kind it is functional. The settings on record: 0.5 h.
Assay [3] has as its system Rattus norvegicus. Kind of assay: Reduction in heart rate in spontaneously hypertensive rat at 30 mg/kg, ip administered as single dose and measured 120 mins post dose by tail-cuff plethysmography. Type of assay: functional. To be noted: 2 h.
The subject of assay [4] is Rattus norvegicus. Nature of the assay: Reduction in heart rate in spontaneously hypertensive rat at 30 mg/kg, ip administered as single dose and measured 30 mins post dose by tail-cuff plethysmography. In kind it is functional. To be noted: 0.5 h.
Assay [5] relates to Rattus norvegicus. Kind of assay: Reduction in heart rate in spontaneously hypertensive rat at 30 mg/kg, ip administered as single dose and measured 60 mins post dose by tail-cuff plethysmography. Type of assay: functional. To be noted: 1 h.
The test system of assay [6] is Rattus norvegicus. Kind of assay: Reduction in mean arterial blood pressure in spontaneously hypertensive rat at 30 mg/kg, ip administered as single dose and measured 60 mins post dose by tail-cuff plethysmography. To be noted: 1 h. In kind it is functional.
Assay [7] deals with T1, Adrenergic receptor alpha-2 (Rattus norvegicus, UniProt P22086+P19328+P22909).
T1 sequence (P22086 whole entry): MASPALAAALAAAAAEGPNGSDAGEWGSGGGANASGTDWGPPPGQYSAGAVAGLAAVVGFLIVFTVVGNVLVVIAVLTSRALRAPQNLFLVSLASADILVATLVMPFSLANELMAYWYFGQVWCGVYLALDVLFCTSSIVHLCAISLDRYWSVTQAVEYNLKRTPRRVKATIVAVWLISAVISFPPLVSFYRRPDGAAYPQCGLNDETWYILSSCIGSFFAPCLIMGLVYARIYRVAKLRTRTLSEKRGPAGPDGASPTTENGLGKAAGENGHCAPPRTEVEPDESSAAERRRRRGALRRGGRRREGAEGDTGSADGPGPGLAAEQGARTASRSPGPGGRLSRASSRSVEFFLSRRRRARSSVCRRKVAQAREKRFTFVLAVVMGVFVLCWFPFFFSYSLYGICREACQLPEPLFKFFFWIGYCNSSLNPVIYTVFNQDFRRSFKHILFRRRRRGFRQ
T1 sequence (P19328 whole entry): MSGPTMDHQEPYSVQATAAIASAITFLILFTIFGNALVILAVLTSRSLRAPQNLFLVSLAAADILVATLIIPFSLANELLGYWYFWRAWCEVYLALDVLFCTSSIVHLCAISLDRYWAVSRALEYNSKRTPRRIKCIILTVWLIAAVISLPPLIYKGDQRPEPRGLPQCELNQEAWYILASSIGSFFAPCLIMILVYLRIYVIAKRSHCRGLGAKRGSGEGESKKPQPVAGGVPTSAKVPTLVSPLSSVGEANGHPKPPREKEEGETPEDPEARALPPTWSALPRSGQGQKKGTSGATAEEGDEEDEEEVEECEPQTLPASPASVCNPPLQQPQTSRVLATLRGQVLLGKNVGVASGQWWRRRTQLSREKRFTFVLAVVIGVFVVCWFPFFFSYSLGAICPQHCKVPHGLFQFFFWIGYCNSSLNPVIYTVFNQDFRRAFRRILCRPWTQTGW
T1 sequence (P22909 whole entry): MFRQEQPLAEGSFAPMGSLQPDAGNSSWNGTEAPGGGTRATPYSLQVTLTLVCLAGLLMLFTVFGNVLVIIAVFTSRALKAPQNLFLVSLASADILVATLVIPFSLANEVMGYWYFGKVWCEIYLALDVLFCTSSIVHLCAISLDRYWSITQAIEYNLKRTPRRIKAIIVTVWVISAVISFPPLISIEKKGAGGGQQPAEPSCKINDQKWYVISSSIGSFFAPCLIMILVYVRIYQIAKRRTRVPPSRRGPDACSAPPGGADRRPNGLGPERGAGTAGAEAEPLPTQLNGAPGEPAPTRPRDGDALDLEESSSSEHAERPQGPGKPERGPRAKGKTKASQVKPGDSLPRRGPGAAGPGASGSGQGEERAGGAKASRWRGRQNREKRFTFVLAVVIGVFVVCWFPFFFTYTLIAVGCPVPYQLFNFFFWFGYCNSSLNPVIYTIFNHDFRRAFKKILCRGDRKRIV
Kind of assay: Displacement of [3H]-clonidine from alpha2 adrenoreceptor in rat cortex membranes. Type of assay: cell membranes. In general terms: In a radioligand displacement assay an active substance lowers the binding of a labelled ligand.

A further assay has as its system PC-12. Nature of the assay: Selectivity ratio, […]-imidazoline receptor in rat PC12 cell membranes to […] adrenoreceptor in rat cortex membranes. In kind it is cell-based.
Assay [8] relates to Rattus norvegicus. Nature of the assay: Reduction in mean arterial blood pressure in spontaneously hypertensive rat at 30 mg/kg, ip administered as single dose and measured 30 to 120 mins post dose pre-treated with 30 mg/kg, ip 2-(1-phenylpropan-2-yl)-4,5-dihydro-1H-imidazole by tail-cuff plethysmography. Type of assay: functional, organism-based.

For the molecule `CC(Cc1ccccc1-c1ccsc1)C1=NCCN1` (stereo not drawn), on Nischarin, the inhibition constant (Ki) is 0.0631 µM. Moreover, the inhibition in vivo at 30 mg/kg stood at 10.8% in the assay with Rattus norvegicus [1]; 24.8% in the assay with Rattus norvegicus [2]; 11.2% with Rattus norvegicus [3]; 26.4% in the assay with Rattus norvegicus [4]; 19.7% in the assay with Rattus norvegicus [5]; 35.1% in the assay on Rattus norvegicus [6]. Further, the pKi in [7] is on record as under 6.

Take `CC(Cc1ccccc1-c1cccc(O)c1)C1=NCCN1` (stereo not drawn): the inhibition constant (Ki) on Nischarin is over 1 µM. Also, in [7], the negative logarithm of the Ki (pKi) was under 6.

`CC(Oc1ccccc1-c1ccccc1)C1=NCCN1` (stereo not drawn) [BIPHENYLINE]: the Ki at Nischarin was 0.126 µM.

On Nischarin, `CC(Cc1ccccc1-c1cccnc1)C1=NCCN1` (stereo not drawn) gave a Ki of over 1 µM. In addition, the negative logarithm of the Ki (pKi) in assay [7] is under 6.

Regarding `CC(Cc1ccccc1-c1ccccc1)C1=NCCN1` (stereo not drawn), the Ki on Nischarin was 0.155 µM. Further, the inhibition in vivo at 30 mg/kg amounted to 34.9% with Rattus norvegicus [1]; 27.6% with Rattus norvegicus [2]; 11.9% with Rattus norvegicus [3]; 14.2% with Rattus norvegicus [4]; 13.8% in the assay with Rattus norvegicus [5]; 25.4% with Rattus norvegicus [6]. Further, the Ratio with PC-12 stood at 513. For the same molecule, the pKi in [7] was 4.1.

As for `CC(Oc1ccccc1)C1=NCCN1` (stereo not drawn), affinity at Nischarin was put at a Ki of 0.309 µM.

As to `Cc1ccccc1C[C@@H](C)C1=NCCN1`, the Ki on Nischarin was 1.05 µM. For the same molecule, the inhibition in vivo at 30 mg/kg with Rattus norvegicus [1] is 3.01%; in the assay on Rattus norvegicus [2], 8.67%; in the assay on Rattus norvegicus [3] it was 0%; in the assay with Rattus norvegicus [4], 9.17%; in the assay on Rattus norvegicus [5], 4.18%; with Rattus norvegicus [6] it was 12.7%. In [7], this molecule came in with a pKi of under 6.

In turn, `CC(Cc1ccccc1Cl)C1=NCCN1` (stereo not drawn) gave a Ki at Nischarin of 0.195 µM. The inhibition in vivo at 30 mg/kg in the assay with Rattus norvegicus [1] is 32.4%; with Rattus norvegicus [2], 37.8%; in the assay on Rattus norvegicus [3] it was 8.02%; in the assay with Rattus norvegicus [4] it was 11.1%; in the assay on Rattus norvegicus [5] it was 11.6%; in the assay with Rattus norvegicus [6], 31.4%. In addition, in assay [7], the negative-log Ki (pKi) is reported as under 6.

As to `C[C@@H](Cc1ccccc1-c1ccccc1)C1=NCCN1`, the affinity at Nischarin corresponds to a Ki of 0.0977 µM.

Molecule `Cc1ccccc1CC(C)C1=NCCN1` (stereo not drawn) showed a Ki at Nischarin of 0.0234 µM. Also, the inhibition result in the assay with Rattus norvegicus [8] was “inactive”. The inhibition in vivo at 30 mg/kg stood at 53.1% in the assay on Rattus norvegicus [1]; 32.4% in the assay with Rattus norvegicus [2]; 7.66% with Rattus norvegicus [3]; 11.7% in the assay on Rattus norvegicus [4]; 13.6% with Rattus norvegicus [5]; 29.7% with Rattus norvegicus [6]. Moreover, in assay [7], the pKi was under 6.

`C[C@H](Cc1ccccc1-c1ccccc1)C1=NCCN1` had an inhibition constant Ki on Nischarin of 2.24 µM.

Take `Cc1ccccc1C[C@H](C)C1=NCCN1`: the Ki on Nischarin was 0.0132 µM. Further, the inhibition in vivo at 30 mg/kg in the assay with Rattus norvegicus [1] was found to be 7.85%; in the assay on Rattus norvegicus [2], 34.4%; in the assay with Rattus norvegicus [3], 5.89%; with Rattus norvegicus [4], 12%; with Rattus norvegicus [5] it was 11.1%; in the assay with Rattus norvegicus [6], 26%. The molecule further gave a negative-log Ki (pKi) in assay [7] of under 6.

These data come from ChEMBL document CHEMBL3580533, “Antagonism/Agonism modulation to build novel antihypertensives selectively triggering i1-imidazoline receptor activation” (ACS Med Chem Lett, 2015).
